PubChem BioAssay AID1645862 (Buhrlage Lab, Dana-Farber Cancer Institute and Novartis …, 2021)
Calls of active or inactive are those of the source. The rule behind the calls is not given here.

Target: Ubiquitin carboxyl-terminal hydrolase 8 (Homo sapiens) (UniProt P40818)
Assay: Ubiquitin-specific protease 8 inhibitors, concentration-effect, biochemical, validation of initial actives (AID 1645862);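 note: potency reflects inhibition of USP8 cleavage of a ubiquitin rhodamine substrate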
Details: recombinant USP8 deubiquitinase activity assay

Chain of Ubiquitin carboxyl-terminal hydrolase 8 (Homo sapiens) (P40818 whole entry, looked up): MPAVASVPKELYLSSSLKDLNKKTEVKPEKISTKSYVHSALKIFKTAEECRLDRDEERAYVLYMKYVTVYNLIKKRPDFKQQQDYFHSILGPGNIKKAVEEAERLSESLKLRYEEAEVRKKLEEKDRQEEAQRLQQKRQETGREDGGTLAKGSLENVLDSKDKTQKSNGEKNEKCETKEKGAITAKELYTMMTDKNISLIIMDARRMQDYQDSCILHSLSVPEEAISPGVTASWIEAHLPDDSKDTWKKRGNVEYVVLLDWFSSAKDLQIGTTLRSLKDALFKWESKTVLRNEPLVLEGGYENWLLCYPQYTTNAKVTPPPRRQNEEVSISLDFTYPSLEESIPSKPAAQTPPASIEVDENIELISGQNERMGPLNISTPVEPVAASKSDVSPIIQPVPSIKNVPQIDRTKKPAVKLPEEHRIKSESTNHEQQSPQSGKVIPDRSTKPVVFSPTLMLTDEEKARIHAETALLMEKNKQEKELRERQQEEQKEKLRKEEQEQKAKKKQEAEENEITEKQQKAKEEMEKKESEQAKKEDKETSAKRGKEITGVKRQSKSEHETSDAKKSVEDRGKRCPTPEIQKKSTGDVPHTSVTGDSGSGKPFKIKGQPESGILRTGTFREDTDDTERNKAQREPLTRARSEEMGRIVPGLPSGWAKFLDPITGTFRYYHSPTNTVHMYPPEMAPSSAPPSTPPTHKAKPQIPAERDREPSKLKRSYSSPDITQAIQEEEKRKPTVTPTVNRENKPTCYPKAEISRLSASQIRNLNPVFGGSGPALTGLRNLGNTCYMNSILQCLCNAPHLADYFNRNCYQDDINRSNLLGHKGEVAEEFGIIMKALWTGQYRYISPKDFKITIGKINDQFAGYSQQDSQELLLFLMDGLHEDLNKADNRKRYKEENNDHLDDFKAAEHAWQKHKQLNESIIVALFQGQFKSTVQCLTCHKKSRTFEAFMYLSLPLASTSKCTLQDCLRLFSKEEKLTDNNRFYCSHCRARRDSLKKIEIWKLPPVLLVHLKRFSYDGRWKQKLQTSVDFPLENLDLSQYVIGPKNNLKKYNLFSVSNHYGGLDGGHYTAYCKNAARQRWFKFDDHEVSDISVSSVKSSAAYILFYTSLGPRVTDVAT

| IC50 | Compound |
| --- | --- |
| > 40 µM (inactive) | Cc1ccc(OCc2nc3ccccc3n2CC(=O)Nc2ccc(C(F)(F)F)cc2)cc1 |
| > 40 µM (inactive) | COc1ccccc1N(CC(=O)N1c2ccccc2CC1C)S(=O)(=O)c1ccc(F)cc1 (stereo not given) |
| > 40 µM (inactive) | Cc1ccc(C2=Nc3ccccc3N(CC(=O)Nc3cccc(C)c3C)C(=O)C2)cc1C |
| > 40 µM (inactive) | CC[C@H](C)[C@H](NC(=O)[C@H]([C@@H](C)CC)N(C)C(C)=O)C(=O)N[C@H](C(=O)N[C@@H](CC(C)C)C(=O)C1(C)CO1)[C@@H](C)O (stereo not given in full) |
| > 40 µM (inactive) | COc1cc(NC(=O)Cc2ccccc2)ccc1NC(=O)c1cc2ccccc2o1 |
| 10.5 µM | COc1ccc(Cl)cc1NC(=O)c1cc(-c2ccccn2)n[nH]1 |
| > 40 µM (inactive) | CS(=O)(=O)c1cccc(-c2nnc(NC(=O)c3ccc(Cc4ccccc4)cc3)o2)c1 |
| > 40 µM (inactive) | Cc1ccc(S(=O)(=O)Nc2cccc(Cl)c2)cc1NC(=O)CCC(=O)c1ccc(Cl)cc1 |
| > 40 µM (inactive) | CCOc1ccc(-n2ccnc(SCC(=O)Nc3ccccc3F)c2=O)cc1 |
| > 40 µM (inactive) | CCOc1ccc(-c2nnc(-c3cnc4onc(C5CCCC5)c4c3)o2)cc1 |
| > 40 µM (inactive) | O=C(Nc1ccc(-n2cccc2)cc1)c1cccc([N+](=O)[O-])c1 |
| 10.7 µM | O=C(c1cnc2[nH][nH]c(=O)c2c1)c1cc(Cl)cc(Cl)c1O |
| > 40 µM (inactive) | Cc1[nH]c2ccc(F)cc2c(=O)c1CN1CCCCC1 |
| > 40 µM (inactive) | O=S(=O)(Nc1cccc(O)c1)c1ccc2oc3ccc(S(=O)(=O)Nc4cccc(O)c4)cc3c2c1 |
| > 40 µM (inactive) | Cc1cccc(NC(=O)Nc2ccc(C)n(CC(=O)Nc3ccc(C)c(C)c3)c2=O)c1 |
| > 40 µM (inactive) | O=C(CCCn1c(=O)c2sccc2n(CC(=O)NCCC2=CCCCC2)c1=O)NCc1ccc2c(c1)OCO2 |
| > 40 µM (inactive) | O=C(Cn1c(=O)n(Cc2ccc(C(=O)NC3CCCC3)cc2)c(=O)c2ccccc21)c1ccc(Cl)c(Cl)c1 |
| > 40 µM (inactive) | O=C(COc1ccc(Cl)cc1)Nc1noc(-c2cccs2)n1 |
| > 40 µM (inactive) | O=C(CCc1ccc(S(=O)(=O)N2CCOCC2)cc1)OCC(=O)c1ccc(-c2ccccc2)cc1 |
| > 40 µM (inactive) | COC(=O)c1ccc2c(=O)n(-c3ccc(C)c(F)c3)c(N3CCC(C(N)=O)CC3)nc2c1 |
| > 40 µM (inactive) | CC(C)CC(NC(=O)c1ccc(Cl)cc1Cl)c1nc2ccccc2[nH]1 (stereo not given) |
| 0.972 µM | COc1cc2cc3c(c(O)c2c(O)c1-c1c(OC)cc2cc4c(c(O)c2c1O)C(=O)OC1CC(C)OC41)C(=O)OC1CC(C)OC31 (stereo not given) |

| IC50 | Compound |
| --- | --- |
| > 40 µM (inactive) | O=C(COc1cccc(-c2noc(-c3ccc([N+](=O)[O-])cc3)n2)c1)Nc1ccccc1 |
| > 40 µM (inactive) | Nc1ncnc2c1ncn2[C@@H]1O[C@H](CO)C[C@@H]1O |
| 16.5 µM | CCc1noc(-c2ccn3c(CC(=O)Nc4ccccc4C)nnc3c2)n1 |
| > 40 µM (inactive) | COc1ccc2cc(C(=O)N3CCC(C(C)C(=O)NCc4cccc(F)c4)CC3)[nH]c2c1 (stereo not given) |
| > 40 µM (inactive) | COc1ccc(NC(=O)c2nnc(C(=O)NCc3ccccc3F)s2)cc1 |
| > 40 µM (inactive) | OC1CCCN(c2ncc(-c3cnccn3)c(-c3cccs3)n2)C1 (stereo not given) |
| > 40 µM (inactive) | Cc1c(C(=O)NCc2cccc(Br)c2)oc2c1-c1[nH]ncc1CC2 |
| 20.2 µM | C/C=C/C=C/[C@@H]1Cc2cc(O)cc(O)c2O1 |
| > 40 µM (inactive) | Cn1c(=O)c(-c2ccc(C(=O)NCc3cccc(Cl)c3)cc2)nc2cccnc21 |
| > 40 µM (inactive) | COc1ccc(-c2cc3nc([C@H](C)NC(=O)Cc4cccc(F)c4)nn3cn2)cc1 |
| > 40 µM (inactive) | CC(NC(=O)c1ccccc1)c1nc2ccccc2n1CC(=O)Nc1ccc(OC(F)(F)F)cc1 (stereo not given) |
| > 40 µM (inactive) | CCc1ccc(NC(=O)Cn2c(=O)n(Cc3ccccc3)c(=O)c3nn(CC)cc32)cc1 |
| 1.46 µM | Cc1cc(O)c2c3c(c(O)cc2c1)C(=O)c1c(O)cccc1C3=O |
| 8.2 µM | Cc1cc(C(=O)NC2(O)C(=O)c3ccccc3C2=O)n(C)n1 |
| > 40 µM (inactive) | CC(Nc1nnc(Cc2ccccc2)c(=O)[nH]1)c1ccccc1 (stereo not given) |
| > 40 µM (inactive) | CCCn1c(=O)c(-c2ccc(C(=O)NCc3ccc(OC)cc3)cc2)nc2cccnc21 |
| > 40 µM (inactive) | COc1ccccc1N1CCN(C(=O)c2ccc3c(=O)n(CCc4ccccc4)c(=O)[nH]c3c2)CC1 |
| > 40 µM (inactive) | Cc1cccc(C)c1NC(=O)COc1ccccc1-c1nnc(-c2ccccc2)o1 |
| > 40 µM (inactive) | CCOc1ccc(-c2nc(SCC(=O)Nc3cccc(C)c3)n3[nH]c(=O)cc3n2)cc1 |
| > 40 µM (inactive) | CCOc1ccc2[nH]c3c(=O)n(CCc4ccc(OC)cc4)cnc3c2c1 |
| > 40 µM (inactive) | CCc1ccc(S(=O)(=O)Nc2ccc(-c3nnc(-c4ccccc4)o3)cc2)cc1 |
| > 40 µM (inactive) | O=C(COc1ncnc2sc3c(c12)CCCC3)Nc1ccc2c(c1)OCO2 |

| IC50 | Compound |
| --- | --- |
| > 40 µM (inactive) | COc1ccc(-c2cc3c(=O)n(CC(=O)Nc4ccccc4C)ccn3n2)cc1 |
| 0.734 µM | Cn1c(=O)c2nc(-c3ccc(Cl)cc3)nnc2n(C)c1=O |
| > 40 µM (inactive) | CCn1c(CNC(=O)c2cccc(C)c2)nnc1SCC(=O)N1CCc2ccccc21 |
| > 40 µM (inactive) | Cc1cc(Cl)ccc1NC(=O)c1cc(-c2cccnc2)n[nH]1 |
| > 40 µM (inactive) | Cc1ccc(CNC(=O)CCCn2c(=O)c3sccc3n(CC(=O)Nc3cc(Cl)ccc3C)c2=O)cc1 |
| > 40 µM (inactive) | O=C(Cn1c(=O)[nH]c2ccccc2c1=O)NCc1ccccc1Cl |
| > 40 µM (inactive) | FC(F)(F)c1cccc(Nc2nc(-c3ccccn3)nc3ccccc23)c1 |
| > 40 µM (inactive) | Cc1ccc(NC(=O)Cn2cncc(-c3nc(-c4ccccc4)cs3)c2=O)cc1F |
| > 40 µM (inactive) | O=C(Cn1nc(-c2ccccc2)cc(NC(=O)c2ccccc2)c1=O)Nc1ccc(F)cc1 |
| > 40 µM (inactive) | COc1cc(Cn2cnc3c([nH]c4ccc(Br)cc43)c2=O)cc(OC)c1 |
| > 40 µM (inactive) | COc1ccc(CNC(=O)CCCc2nnc3c(=O)n(-c4cc(C)cc(C)c4)ccn23)cc1 |
| > 40 µM (inactive) | CCNS(=O)(=O)c1ccc(-c2ccc(-n3cnnn3)cc2)cc1 |
| > 40 µM (inactive) | COc1ccc(NC2c3ccccc3C(=O)N2c2ccccn2)cc1 (stereo not given) |
| 4.69 µM | CCCCCCCCCCCC1=C(O)C(=O)C=C(O)C1=O |
| > 40 µM (inactive) | CNc1ccc(-c2noc([C@@H]3CCCN3Cc3cccc(C#N)c3)n2)cn1 |
| > 40 µM (inactive) | O=C(Nc1cccnc1)C1c2ccccc2C(=O)N(c2ccccc2)C12CCCCC2 (stereo not given) |
| > 40 µM (inactive) | Cc1ccc(NC(=O)c2cc(-c3ccncc3)n[nH]2)cc1Cl |
| > 40 µM (inactive) | O=C(CCSc1nnnn1-c1ccccc1)Nc1cc(C(F)(F)F)ccc1Cl |
| > 40 µM (inactive) | O=C(NCc1ccccc1Cl)C1CCN(c2ccc(-c3ccccc3)nn2)CC1 |
| > 40 µM (inactive) | Cc1ccccc1NC(=O)Nc1ccccc1OCc1cc(=O)n2cccc(C)c2n1 |
| > 40 µM (inactive) | CCOC(=O)c1cc2c(ccn2-c2ccc(F)cc2)n1CC(=O)Nc1ccc2c(c1)OCCO2 |
| 32.9 µM | Nc1ccc2oc(-c3cccc(-c4nc5cc(N)ccc5o4)n3)nc2c1 |

| IC50 | Compound |
| --- | --- |
| > 40 µM (inactive) | COc1ccc(C)cc1NC(=O)C1CC(=O)Nc2nc3ccccc3n21 (stereo not given) |
| > 40 µM (inactive) | Cc1ccc(-c2n[nH]n3c2nc(=O)c2ccc(C(=O)NC4CCCCC4)cc23)cc1 |
| > 40 µM (inactive) | O=C(COC(=O)C(Cc1c[nH]c2ccccc12)NC(=O)c1ccccc1Cl)Nc1ccc([N+](=O)[O-])cc1C(F)(F)F (stereo not given) |
| > 40 µM (inactive) | Cc1ncc(-c2ccc3c(c2)OCO3)c(-c2nccs2)n1 |
| > 40 µM (inactive) | CCn1cc2c(n1)c(=O)n(Cc1ccccc1)c(=O)n2CC(=O)Nc1ccc(OC)cc1 |
| 4.52 µM | Cn1c2ccccc2c(=O)c2c(=O)n(-c3cccc(Cl)c3)c(-c3cccs3)nc21 |
| > 40 µM (inactive) | Cc1nnc2ccc(-c3ccc(NC(=O)c4ccc(Br)o4)cc3)nn12 |
| > 40 µM (inactive) | O=C(Cn1cc(C(=O)c2ccc(F)cc2)c(=O)c2ccccc21)Nc1ccc2c(c1)OCO2 |
| > 40 µM (inactive) | O=C(Cn1c(=O)n(-c2ccc(Cl)cc2)c(=O)c2c3c(sc21)CCCC3)NCC1CCCO1 (stereo not given) |
| > 40 µM (inactive) | COc1ccccc1NC(=O)C1=C(C)Nc2nc(SCc3ccccc3F)nn2C1c1ccccn1 (stereo not given) |
| > 40 µM (inactive) | CC1CCCN(S(=O)(=O)c2ccc(-n3cnc(C(=O)NC4CC4)c3)nc2)C1 (stereo not given) |
| > 40 µM (inactive) | COc1cc(OC)c(NC(=O)c2cc(-c3ccccn3)n[nH]2)cc1Cl |
| > 40 µM (inactive) | COc1cc2c(c(OCC(=O)Nc3ccc4c(c3)OCCO4)c1)C(=O)O[C@@H](C)CCCC(=O)CCCCC2 |
| > 40 µM (inactive) | Cc1ccc(NC(=O)CSc2nnc(-c3n[nH]c4c3CCC4)n2N)cc1C |
| > 40 µM (inactive) | O=C(c1ccc2occc2c1)N1CCC(S(=O)(=O)c2ccc(-c3ccco3)cc2)CC1 |
| > 40 µM (inactive) | Cc1nc(-c2ccc(Cl)cc2)oc1C(=O)Nc1ccc(Cl)cc1 |
| > 40 µM (inactive) | O=C(Nc1ccc(Br)cc1F)c1ccc(S(=O)(=O)N2CCCC2)cc1 |
| 30.7 µM | Cc1ccc2[nH]c3c(=O)n(Cc4ccc(N(C)C)cc4)cnc3c2c1 |
| > 40 µM (inactive) | CCOC(=O)N1CCN(C(=O)c2ccc(NCc3ccc(F)cc3)c(S(=O)(=O)Nc3cccc(C(F)(F)F)c3)c2)CC1 |
| > 40 µM (inactive) | COc1cc(O)cc2c1C(=O)OC(C)CCCCCCC2 (stereo not given) |
| > 40 µM (inactive) | O=C(NC1CCCCC1)C(c1ccc(F)cc1)N(C(=O)C1COc2ccccc2O1)c1ccc2c(c1)OCO2 (stereo not given) |
| > 40 µM (inactive) | CSc1ccccc1C(=O)Nc1sc2c(c1C(N)=O)CCC(C)C2 (stereo not given) |

| Compound | IC50 |
| --- | --- |
| CCOc1ccc(C2SCC(=O)Nc3c2c(=O)[nH]n3C2CCCCC2)cc1 (stereo not given) | > 40 µM (inactive) |
| O=c1c2ccccc2nc(CSc2cccc(Cl)c2Cl)n1-c1ccccc1 | > 40 µM (inactive) |
